From patent US6660910B1, “Selection marker” (Syngenta Mogen B.V., priority 1997, dated 2003)

Assays:
[1] = system: callus derived from scutellum of mature embryos of Oryza sativa cv. Taipei 309; test: Rice callus transformation (Agrobacterium) with cyanamide selection; type: cell-based; conditions: for Calli able to regenerate: 15 mg/l cyanamide
Experimental: Described below is the method used for transformation of callus derived from scutellum of mature embryos of Oryza sativa cv. Taipei 309 using Agrobacterium tumefaciens strain LBA1119-pMOG1295 (harboring the cah-gene) and strain LBA1119-pMOG1253 (control). Sterile dehusked rice seeds were germinated on plates containing Callus Induction Medium (CIM) in the dark at 28° C. (The contents of various media can be found in Table 5). After 3 weeks embryogenic callus derived from the scutellum is isolated and subcultured on the same medium under the same conditions. After 2-3 weeks embryogenic calli were cut in segments of approximately 2-3 mm and cultured plates containing CIM for 4 days. The Agrobacterium strains used in this study harbored a rifampicin selection marker in a C 58 chromosomal background. The construction of the helper strain EHA105 is described by Hood et al. (1993). Agrobacteria were grown for 4 days on plates containing AB medium with antibiotics (rifampicin 20 mg/l, kanamycin 100 mg/l ). Agrobacteria were collected in LIM and the OD600 was adjusted till 1.0-1.5. This suspension was used for cocultivation. Calli were incubated for 10 minutes with the Agrobacterium suspension and dried on sterile filter paper to remove excess of bacteria. Calli were cultured for 48 h on Coculture Medium (COM) plates at 25° C. in the dark. 50 pMOG1295 calli and 20 pMOG1253 calli were cultured per concentration of cyanamid. The following concentrations of cyanamide were used: 0, 15, 30, 60, 100, 150, 200, 300 and 500 mg/l. Hygromycin was applied in a concentration of 50 mg/l. Calli were incubated on First Selection Medium (FSM) plates containing several concentrations of cyanamide or hygromycin at 28° C. in the dark. After 3 weeks the calli were transferred to Embryo Induction Medium I (EIM I) containing the same concentration of cyanamide or hygromycin . After another 3 weeks the calli were subcultured on Embryo Induction Medium II (EIM II) containing the same concentration of cyanamide or an increased concentration of hygromycin (75 mg/l). Calli were transferred to Shoot Induction Medium (SIM) containing the same concentration of cyanamide as during FSM, EIM I, EIM II and were cultured under 12 hours light period (2600 LUX) and 12 hours dark at 28 ° C. Approximately 3 weeks after transferring calli to SIM, shoots were regenerating and excised and placed in jars containing Pre-Greenhouse Medium (PGM). […] At 15 mg/l cyanamide the regeneration frequency of callus from both constructs was the same (pMOG1253 7 out of 16 calli were able to regenerate, pMOG1295 17 out of 44).

[2] = system: root segments of Arabidopsis thaliana cv. C24; test: Arabidopsis root transformation with selection on cyanamide or kanamycin; type: cell-based; conditions: pMOG 1156; treatment kanamycin 50 mg/litre; column headed same conc. as treatment in rooting medium
[3] = pMOG1295, 30 mg/l cyanamide, 50 calli cultured

| SMILES | Callus formation ([1]; cyanamide 100 mg/l or higher, pMOG1295 and pMOG1253 calli) | Calli able to regenerate ([1]; pMOG1253 (control)) | Calli able to regenerate ([1]; pMOG1295 (cah-gene)) | Calli able to be regenerated [1, 3] | Calli showing green callus development [1, 3] | Percentage of GUS expressing plants (% of plants staining blue) [2] [%] |
| --- | --- | --- | --- | --- | --- | --- |
| N#CN [Cyanamide] | No calli were formed | 7 out of 16 | 17 out of 44 | 6 | 11 |  |
| NC[C@H]1O[C@H](O[C@H]2[C@H](O)[C@@H](O[C@H]3O[C@H](CO)[C@@H](O)[C@H](N)[C@H]3O)[C@H](N)C[C@@H]2N)[C@H](O)[C@@H](O)[C@@H]1O [Kanamycin] |  |  |  |  |  | 100 |
